A word on the GI50: it is the concentration giving 50% growth inhibition.

Where a name gives a salt, the structure may show the parent alone.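 Five concentrations, 48 hours, 96-well plates. Abbreviation: GI50, concentration required for 50% inhibition of growth.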 Active and inactive are the calls of the source. No stated cut-off is given here; in the data, active = GI50 up to about 1.1 µM and inactive = higher.

We go through three compounds from ChEMBL document CHEMBL1201862, “PubChem BioAssay data set” (2004).

What all share (test): DTP human tumour cell line panel, 48 h
The subject of assay [1] is A498.
For assay [2], the system named is CAKI-1.
The test system of assay [3] is CCRF-CEM.
In assay [4] the test system is HCT-116.
The test system of assay [5] is HCT-15.
The test system of assay [6] is K562.
The test system of assay [7] is MOLT-4.
The test system of assay [8] is Malme-3M.
For assay [9], the system named is NCI-H226.
The test system of assay [10] is NCI-H460.
Assay [11] deals with PC-3.
The test system of assay [12] is SK-MEL-28.
In assay [13] the test system is SK-MEL-2.
Assay [14] concerns SK-OV-3.
Assay [15] deals with SNB-75.
For assay [16], the system named is SR.
Assay [17] deals with TK-10.
Assay [18] concerns U-251.
The test system of assay [19] is UACC-257.
The test system of assay [20] is UACC-62.

On to `O=C(OCC1CC(C2(O)CCCCC2)C(=O)O1)c1ccccc1` (stereo not given), for which the GI50 in [1] was > 100 µM (inactive); in assay [2], > 100 µM (inactive); in [3] it was > 100 µM (inactive); in [4], > 100 µM (inactive); in assay [5] it was above 100 µM; in assay [6] it was > 100 µM (inactive). The GI50 was > 100 µM (inactive) in assay [7]; > 100 µM (inactive) in assay [8]; > 100 µM (inactive) in assay [9]; 71.8 µM (inactive) in [10]; > 100 µM (inactive) in assay [11]; > 100 µM (inactive) in assay [12]. Moreover, the GI50 in assay [13], in assay [14], in assay [15], in assay [16], in [17] and in assay [18] was > 100 µM (inactive) in each case. In addition, the GI50 in assay [19] and in [20] was > 100 µM (inactive) throughout.
As to `COc1cc(OC)c(/C=N\Nc2nc3ccccc3c(=O)n2-c2ccccc2)c(OC)c1`, the GI50 is 11.8 µM (inactive) in assay [1]; 16 µM (inactive) in [2]; 14.2 µM (inactive) in [3]; 20.1 µM (inactive) in assay [4]; 37.4 µM in assay [5]; 33 µM (inactive) in assay [6]. Further, the GI50 is 22.9 µM (inactive) in [7]; 28.1 µM (inactive) in [8]; 19.4 µM (inactive) in [9]; 21.7 µM (inactive) in [10]; 26.3 µM (inactive) in assay [11]; 27.4 µM (inactive) in [12]. Besides, the GI50 in [13] was 25.4 µM (inactive); in assay [14], 24.9 µM (inactive); in [15], 24.9 µM (inactive); in assay [16], 36.6 µM (inactive); in assay [17], 34.1 µM (inactive); in assay [18], 32.1 µM (inactive). The GI50 is 27.5 µM (inactive) in assay [19] and 19.5 µM (inactive) in assay [20].
Take `N[C@@H](Cc1ccc(N(CCCl)CCCl)cc1)C(=O)O` [MELPHALAN HYDROCHLORIDE]: the GI50 in assay [1] is 99.1 µM (inactive); in [2], 10.9 µM (inactive); in assay [3] it was 2.85 µM (inactive); in assay [4] it was 42.1 µM (inactive); in [5] it was 39.4 µM; in assay [6], 50.7 µM (inactive). The GI50 in assay [7] was 2.79 µM (inactive); in assay [8] it was 23.8 µM (inactive); in assay [9], 49.9 µM (inactive); in assay [10], 7.35 µM (inactive); in assay [11] it was 37.4 µM (inactive); in assay [12], 57.8 µM (inactive). In addition, the GI50 in [13] was 56.2 µM (inactive); in [14] it was 32 µM (inactive); in assay [15] it was 34.7 µM (inactive); in [16], 1.71 µM (inactive); in assay [17], 67.1 µM (inactive); in [18], 27 µM (inactive). Further, the GI50 in assay [19] was 42.5 µM (inactive); in assay [20], 11.2 µM (inactive).
